These compounds were tested against T1, Recombinant human BRD4 containing dual bromodomains (BRD4-BD12 (1-477)) (Homo sapiens, UniProt O60885) (assay: BRD4 Alphascreen binding assay).
T1 construct: Recombinant human BRD4 containing dual bromodomains (BRD4-BD12 (1-477)); made in house; host or cells: E. coli BL21-CodonPlus (DE3), modified pET vector
Outline: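 AlphaScreen proximity between Ni-chelate-bound BRD4-BD12 (1-477) and streptavidin-captured H4 K5/K8/K12/K16-acetyl peptide measured after 1 h room-temperature compound incubation and 30 min with 7.5 μg/ml beads. Buffer: 50 mM HEPES pH 7.5, 50 mM NaCl, 0.01% BSA, 0.01% Triton X-100; data plate-normalized and four-parameter fit for IC50.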

| SMILES | IC50 [µM] |
| --- | --- |
| Cc1noc(C)c1-c1cnc2c(c1)c(-c1ccc(C(N)=O)cc1)cn2C(c1ccccn1)C1CCCC1 (stereo not drawn) [P-0020, 4-(1-(cyclopentyl(pyridin-2-yl)methyl)-5-(3,5-dimethylisoxazol-4-yl)-1H-pyrrolo[2,3-b]pyridin-3-yl)benzamide] | 1 to 8 |
| CNC(=O)c1ccc(-c2cn(C(c3ccccn3)C3CCCC3)c3ncc(-c4c(C)noc4C)cc23)cc1 (stereo not drawn) [P-0021, 4-(1-(cyclopentyl(pyridin-2-yl)methyl)-5-(3,5-dimethylisoxazol-4-yl)-1H-pyrrolo[2,3-b]pyridin-3-yl)-N-methylbenzamide] | 1 to 8 |
| Cc1noc(C)c1-c1cnc2c(c1)c(-c1ccc(C#N)cc1)cn2C(c1ccccn1)C1CCCC1 (stereo not drawn) [P-0022, 4-(1-(cyclopentyl(pyridin-2-yl)methyl)-5-(3,5-dimethylisoxazol-4-yl)-1H-pyrrolo[2,3-b]pyridin-3-yl)benzonitrile] | 8 to 1000 |
| Cc1noc(C)c1-c1cnc2c(c1)c(-c1ccc3c(c1)CNC3=O)cn2C(c1ccccn1)C1CCCC1 (stereo not drawn) [P-0023, 5-(1-(cyclopentyl(pyridin-2-yl)methyl)-5-(3,5-dimethylisoxazol-4-yl)-1H-pyrrolo[2,3-b]pyridin-3-yl)isoindolin-1-one] | 1 to 8 |
| Cc1noc(C)c1-c1cnc2c(c1)c(-c1ccc(-c3nn[nH]n3)cc1)cn2C(c1ccccn1)C1CCCC1 (stereo not drawn) [P-0024, 4-(3-(4-(2H-tetrazol-5-yl)phenyl)-1-(cyclopentyl(pyridin-2-yl)methyl)-1H-pyrrolo[2,3-b]pyridin-5-yl)-3,5-dimethylisoxazole] | 8 to 1000 |
| Cc1noc(C)c1-c1cnc2c(c1)c(-c1ccc(C(=O)O)c(F)c1)cn2C(c1ccccn1)C1CCCC1 (stereo not drawn) [P-0025, 4-(1-(cyclopentyl(pyridin-2-yl)methyl)-5-(3,5-dimethylisoxazol-4-yl)-1H-pyrrolo[2,3-b]pyridin-3-yl)-2-fluorobenzoic acid] | 1 to 8 |
| Cc1noc(C)c1-c1cnc2c(c1)c(-c1ccc(C(=O)O)nc1)cn2C(c1ccccn1)C1CCCC1 (stereo not drawn) [P-0026, 5-(1-(cyclopentyl(pyridin-2-yl)methyl)-5-(3,5-dimethylisoxazol-4-yl)-1H-pyrrolo[2,3-b]pyridin-3-yl)picolinic acid] | 1 to 8 |
| Cc1cc(-c2c(C(F)(F)F)n([C@@H](C)c3ccccn3)c3cc(-c4c(C)noc4C)cnc23)ccc1C(=O)O [P-0243, (S)-4-(6-(3,5-dimethylisoxazol-4-yl)-1-(1-(pyridin-2-yl)ethyl)-2-(trifluoromethyl)-1H-pyrrolo[3,2-b]pyridin-3-yl)-2-methylbenzoic acid] | 1 to 8 |
| COc1cc(-c2c(C(F)(F)F)n([C@@H](C)c3ccccn3)c3cc(-c4c(C)noc4C)cnc23)ccc1C(=O)O [P-0244, (S)-4-(6-(3,5-dimethylisoxazol-4-yl)-1-(1-(pyridin-2-yl)ethyl)-2-(trifluoromethyl)-1H-pyrrolo[3,2-b]pyridin-3-yl)-2-methoxybenzoic acid] | 1 to 8 |
| Cc1noc(C)c1-c1cnc2c(-c3cccc(C(=O)O)c3F)c(C(F)(F)F)n([C@@H](C)c3ccccn3)c2c1 [P-0245, (S)-3-(6-(3,5-dimethylisoxazol-4-yl)-1-(1-(pyridin-2-yl)ethyl)-2-(trifluoromethyl)-1H-pyrrolo[3,2-b]pyridin-3-yl)-2-fluorobenzoic acid] | 8 to 1000 |
| Cc1noc(C)c1-c1cnc2c(-c3cccc(C(=O)O)c3C)c(C(F)(F)F)n([C@@H](C)c3ccccn3)c2c1 [P-0246, (S)-3-(6-(3,5-dimethylisoxazol-4-yl)-1-(1-(pyridin-2-yl)ethyl)-2-(trifluoromethyl)-1H-pyrrolo[3,2-b]pyridin-3-yl)-2-methylbenzoic acid] | 8 to 1000 |
| Cc1noc(C)c1-c1cnc2c(-c3cccc(C(=O)O)c3Cl)c(C(F)(F)F)n([C@@H](C)c3ccccn3)c2c1 [P-0247, (S)-2-chloro-3-(6-(3,5-dimethylisoxazol-4-yl)-1-(1-(pyridin-2-yl)ethyl)-2-(trifluoromethyl)-1H-pyrrolo[3,2-b]pyridin-3-yl)benzoic acid] | 8 to 1000 |
| CCOC(=O)c1cc(-c2cn(-c3ccc(F)cc3F)c3ncc(-c4c(C)noc4C)cc23)c(OCC)cc1O [P-0248, ethyl 5-(1-(2,4-difluorophenyl)-5-(3,5-dimethylisoxazol-4-yl)-1H-pyrrolo[2,3-b]pyridin-3-yl)-4-ethoxy-2-hydroxybenzoate] | 8 to 1000 |
| CCOc1cc(O)c(C(=O)O)cc1-c1cn(-c2ccc(F)cc2F)c2ncc(-c3c(C)noc3C)cc12 [P-0249, 5-(1-(2,4-difluorophenyl)-5-(3,5-dimethylisoxazol-4-yl)-1H-pyrrolo[2,3-b]pyridin-3-yl)-4-ethoxy-2-hydroxybenzoic acid] | 8 to 1000 |
| CCOc1cc(OC)c(C(=O)O)cc1-c1cn(-c2ccc(F)cc2F)c2ncc(-c3c(C)noc3C)cc12 [P-0250, 5-(1-(2,4-difluorophenyl)-5-(3,5-dimethylisoxazol-4-yl)-1H-pyrrolo[2,3-b]pyridin-3-yl)-4-ethoxy-2-methoxybenzoic acid] | 8 to 1000 |
| Cc1noc(C)c1-c1cnc2c(c1)c(-c1ccc(C(=O)O)cc1OC(F)(F)F)cn2-c1cnccc1F [P-0251, 4-(5-(3,5-dimethylisoxazol-4-yl)-1-(4-fluoropyridin-3-yl)-1H-pyrrolo[2,3-b]pyridin-3-yl)-3-(trifluoromethoxy)benzoic acid] | 8 to 1000 |
| Cc1noc(C)c1-c1cnc2c(c1)c(-c1ccc(C(=O)O)cc1OC(F)(F)F)cn2-c1cnccc1O [P-0252, 4-(5-(3,5-dimethylisoxazol-4-yl)-1-(4-hydroxypyridin-3-yl)-1H-pyrrolo[2,3-b]pyridin-3-yl)-3-(trifluoromethoxy)benzoic acid] | 8 to 1000 |
| Cc1noc(C)c1-c1cnc2c(c1)c(-c1ccc(C(=O)O)cc1OC(F)(F)F)cn2-c1ccncc1Cl [P-0253, 4-(1-(3-chloropyridin-4-yl)-5-(3,5-dimethylisoxazol-4-yl)-1H-pyrrolo[2,3-b]pyridin-3-yl)-3-(trifluoromethoxy)benzoic acid] | 8 to 1000 |
| Cc1noc(C)c1-c1cnc2c(c1)c(-c1ccc(C(=O)O)cc1OC(F)(F)F)cn2-c1c(F)cccc1C#N [P-0254, 4-(1-(2-cyano-6-fluorophenyl)-5-(3,5-dimethylisoxazol-4-yl)-1H-pyrrolo[2,3-b]pyridin-3-yl)-3-(trifluoromethoxy)benzoic acid] | 1 to 8 |
| COc1cc(C(=O)O)cc(C)c1-c1cn(-c2ccccc2)c2ncc(-c3c(C)noc3C)cc12 [P-0255, 4-(5-(3,5-dimethylisoxazol-4-yl)-1-phenyl-1H-pyrrolo[2,3-b]pyridin-3-yl)-3-methoxy-5-methylbenzoic acid] | 1 to 8 |
| Cc1noc(C)c1-c1cnc2c(-c3ccc(C(=O)O)cc3C#N)c(C(F)(F)F)n([C@@H](C)c3ccccn3)c2c1 [P-0256, (S)-3-cyano-4-(6-(3,5-dimethylisoxazol-4-yl)-1-(1-(pyridin-2-yl)ethyl)-2-(trifluoromethyl)-1H-pyrrolo[3,2-b]pyridin-3-yl)benzoic acid] | 8 to 1000 |
| Cc1noc(C)c1-c1cnc2c(-c3cc(C(=O)O)ccc3Cl)c(C(F)(F)F)n([C@@H](C)c3ccccn3)c2c1 [P-0257, (S)-4-chloro-3-(6-(3,5-dimethylisoxazol-4-yl)-1-(1-(pyridin-2-yl)ethyl)-2-(trifluoromethyl)-1H-pyrrolo[3,2-b]pyridin-3-yl)benzoic acid] | 8 to 1000 |
| CCOc1cc(C(=O)O)cc(OCC)c1-n1cc(-c2cnn(CS(C)(=O)=O)c2)c2ncc(-c3c(C)noc3C)cc21 [P-0258, 4-(6-(3,5-dimethylisoxazol-4-yl)-3-(1-((methylsulfonyl)methyl)-1H-pyrazol-4-yl)-1H-pyrrolo[3,2-b]pyridin-1-yl)-3,5-diethoxybenzoic acid] | 1 to 8 |
| CCOc1cc(C(=O)O)cc(OCC)c1-n1cc(-c2cn(C(C)C)nc2C)c2ncc(-c3c(C)noc3C)cc21 [P-0259, 4-(6-(3,5-dimethylisoxazol-4-yl)-3-(1-isopropyl-3-methyl-1H-pyrazol-4-yl)-1H-pyrrolo[3,2-b]pyridin-1-yl)-3,5-diethoxybenzoic acid] | 1 to 8 |
| CCOc1cc(C(=O)O)cc(OCC)c1-n1cc(-c2cnn(CC(C)(C)O)c2)c2ncc(-c3c(C)noc3C)cc21 [P-0260, 4-(6-(3,5-dimethylisoxazol-4-yl)-3-(1-(2-hydroxy-2-methylpropyl)-1H-pyrazol-4-yl)-1H-pyrrolo[3,2-b]pyridin-1-yl)-3,5-diethoxybenzoic acid] | 1 to 8 |
| CCOc1cc(C(=O)O)cc(OCC)c1-n1cc(-c2cnn(C(F)F)c2)c2ncc(-c3c(C)noc3C)cc21 [P-0261, 4-(3-(1-(difluoromethyl)-1H-pyrazol-4-yl)-6-(3,5-dimethylisoxazol-4-yl)-1H-pyrrolo[3,2-b]pyridin-1-yl)-3,5-diethoxybenzoic acid] | 1 to 8 |
| CCOc1cc(C(=O)O)cc(OCC)c1-n1cc(-c2cnn(CCN(C)C)c2)c2ncc(-c3c(C)noc3C)cc21 [P-0262, 4-(3-(1-(2-(dimethylamino)ethyl)-1H-pyrazol-4-yl)-6-(3,5-dimethylisoxazol-4-yl)-1H-pyrrolo[3,2-b]pyridin-1-yl)-3,5-diethoxybenzoic acid] | 1 to 8 |
| CCOc1cc(C(=O)O)cc(OCC)c1-n1cc(-c2cn(C)nc2C)c2ncc(-c3c(C)noc3C)cc21 [P-0263, 4-(3-(1,3-dimethyl-1H-pyrazol-4-yl)-6-(3,5-dimethylisoxazol-4-yl)-1H-pyrrolo[3,2-b]pyridin-1-yl)-3,5-diethoxybenzoic acid] | 1 to 8 |
| CCOc1cc(C(=O)O)cc(OCC)c1-n1cc(-c2cnn(CC3CC3)c2)c2ncc(-c3c(C)noc3C)cc21 [P-0264, 4-(3-(1-(cyclopropylmethyl)-1H-pyrazol-4-yl)-6-(3,5-dimethylisoxazol-4-yl)-1H-pyrrolo[3,2-b]pyridin-1-yl)-3,5-diethoxybenzoic acid] | 1 to 8 |
| CCOc1cc(C(=O)O)cc(OCC)c1-n1cc(-c2cnn(C3CC3)c2)c2ncc(-c3c(C)noc3C)cc21 [P-0265, 4-(3-(1-cyclopropyl-1H-pyrazol-4-yl)-6-(3,5-dimethylisoxazol-4-yl)-1H-pyrrolo[3,2-b]pyridin-1-yl)-3,5-diethoxybenzoic acid] | 1 to 8 |

— patent publication US11446287B2, “Compounds and methods for EP300 or CBP modulation and indications therefor” (Opna Immuno-Oncology SA, priority 2019, dated 2022)
